# In US5089273A, “Ecteinascidins 729, 743, 745, 759A, 759B and 770” (priority 1990, dated 1992):
# Read-outs that look alike come from different tables or passages of the source.
# How the values were obtained:
# M. luteus = assay: Antimicrobial activity vs. M. luteus (disk zones of inhibition); type: cell-based; details: for zone of inhibition at 0.1 µg/disc: 100 ng/6.35-mm disk; for zone of inhibition at 0.2 µg/disc: 200 ng/6.35-mm disk; for antimicrobial activity (in words): dilutions accurate to within a factor of 2; for times less potent than ecteinascidins 729 and 743: relative to ecteinascidins 729 and 743
# Experimental: (§1) The antimicrobial activities (vs. M. luteus) and the cytotoxic activities (vs. CV-1 cells) of the ecteinascidins and ecteinascidin 743 derivatives are shown in Table 1 and 2. […] All of the derivatives of ecteinascidin 743 that were prepared have antimicrobial and cytotoxic activities.
# CV-1 cells = assay: Cytotoxic activity vs. CV-1 cells (disk zones of inhibition); type: cell-based; details: for zone of inhibition at 0.4 µg/disc / zone of inhibition at 0.8 µg/disc / zone of inhibition at 1.6 µg/disc / zone of inhibition at 0.05 µg/disc / zone of inhibition at 0.1 µg/disc / zone of inhibition at 0.2 µg/disc: Cercopithecidae, read-out: Zones of Inhibition
# Experimental: as §1
# bacteria = assay: Antibacterial Activity (disk zone of inhibition, Example 4); type: cell-based
# From the text: | Zone of inhibition (mm)
# [1] = tested on: L1210 mouse leukemia cells; assay: L1210 Tube Dilution Assay; type: cell-based; details: for IC90: L1210, concentration needed to inhibit cell growth by 90 percent, in vitro, read-out: ID90 (the source's name); for IC50: L1210, read-out: ID50
# From the text: The L1210 tube dilution assay is described in detail in a publication by L. H. Li, et al., Cancer Research, 39:4816 (1979). ID50 and ID90 refer to the concentration of ecteinascidin needed to inhibit cell growth by […], respectively.
# P388 leukemia = assay: In vivo P388 mouse leukemia test; details: for T/C (%): Table 4; for T/C: Example 6
# From the text: Compounds of this invention are also active in vivo against P388 leukemia in mice. The P388 mouse leukemia test is described in detail in a publication by G. L. Neil et al., Cancer Treatment Reports, 63: 1971-1978 (1979).
# DNA = assay: biomedical induction assay (BIA), an assay for DNA interaction
# Bacillus subtilis = assay: Antimicrobial Spectrum, zones of inhibition; type: cell-based; details: 6.35-mm disk
# Bacillus subtilis syn = assay: Antimicrobial Spectrum, zones of inhibition; type: cell-based; details: 6.35-mm disk
# Klebsiella pneumoniae = assay: Antimicrobial Spectrum, zones of inhibition; type: cell-based; details: 6.35-mm disk
# Sarcina lutea = assay: Antimicrobial Spectrum, zones of inhibition; type: cell-based; details: Micrococcus luteus; 10 μg/disk; 6.35-mm disk
# Sarcina lutea sens. = assay: Antimicrobial Spectrum, zones of inhibition; type: cell-based; details: Micrococcus luteus, 6.35-mm disk
# Escherichia coli = assay: Antimicrobial Spectrum, zones of inhibition; type: cell-based; details: 6.35-mm disk
# Pseudomonas aeruginosa = assay: Antimicrobial Spectrum, zones of inhibition; type: cell-based; details: 6.35-mm disk
# Staphylococcus aureus = assay: Antimicrobial Spectrum, zones of inhibition; type: cell-based; details: 6.35-mm disk
# Mycobacterium avium = assay: Antimicrobial Spectrum, zones of inhibition; type: cell-based; details: 6.35-mm disk
# Saccharomyces cerevisiae = assay: Antimicrobial Spectrum, zones of inhibition; type: cell-based; details: 6.35-mm disk
# Penicillium oxalicum = assay: Antimicrobial Spectrum, zones of inhibition; type: cell-based; details: 6.35-mm disk
# [2] = Micrococcus luteus, 400 ng/6.35-mm disk
# [3] = Micrococcus luteus, 800 ng/6.35-mm disk
# [4] = Micrococcus luteus, 1600 ng/6.35-mm disk
smiles,measurement,setting,value
"COc1cc2c(cc1O)CCN[C@]21CS[C@@H]2c3c(O)c(C)c4c(c3[C@H](COC1=O)N1[C@@H]2[C@H]2c3c(cc(C)c(OC)c3O)C[C@@H]([C@@H]1O)N2C)OCO4 [Deacetyl, Deacetylecteinascidin 743]",zone of inhibition at 0.1 µg/disc,M. luteus; Micrococcus luteus,8 mm
same,zone of inhibition at 0.2 µg/disc,M. luteus; Micrococcus luteus,10 mm
same,zone of inhibition at 0.4 µg/disc,M. luteus; [2],12 mm
same,zone of inhibition at 0.8 µg/disc,M. luteus; [3],14 mm
same,zone of inhibition at 1.6 µg/disc,M. luteus; [4],16 mm
same,zone of inhibition at 0.4 µg/disc,CV-1 cells; 400 ng/6.35-mm disk,11 mm
same,zone of inhibition at 0.8 µg/disc,CV-1 cells; 800 ng/6.35-mm disk,15 mm
same,zone of inhibition at 1.6 µg/disc,CV-1 cells; 1600 ng/6.35-mm disk,16 mm
"COc1cc2c(cc1OC)[C@@]1(CS[C@@H]3c4c(OC(C)=O)c(C)c5c(c4[C@H](COC1=O)N1[C@@H]3[C@H]3c4c(cc(C)c(OC)c4OC)C[C@@H]([C@@H]1O)N3C)OCO5)NCC2 [Di- -- O-methyl, Di-O-methylecteinascidin 743]",zone of inhibition at 0.8 µg/disc,M. luteus; [3],8 mm
same,zone of inhibition at 1.6 µg/disc,M. luteus; [4],11 mm
same,zone of inhibition at 0.05 µg/disc,CV-1 cells,13 mm
same,zone of inhibition at 0.1 µg/disc,CV-1 cells,15 mm
same,zone of inhibition at 0.2 µg/disc,CV-1 cells,17 mm
same,zone of inhibition at 0.4 µg/disc,CV-1 cells,13 mm
same,zone of inhibition at 0.8 µg/disc,CV-1 cells,16 mm
same,zone of inhibition at 1.6 µg/disc,CV-1 cells,18 mm
COc1cc2c(cc1O)CCN[C@]21CS[C@@H]2c3c(OC(C)=O)c(C)c4c(c3[C@H](COC1=O)N1[C@@H]2[C@H]2c3c(cc(C)c(OC)c3O)C[C@@H]([C@@H]1O)N2C)OCO4 [Ecteinascidin 743],Zone of inhibition,bacteria; 0.005 μg/disk,trace
same,zone of inhibition at 0.01 µg/disc,bacteria; 0.01 μg/disk,7 mm
same,zone of inhibition at 0.02 µg/disc,bacteria; 0.02 μg/disk,9 mm
same,zone of inhibition at 0.05 µg/disc,bacteria; 0.05 μg/disk,12 mm
same,zone of inhibition at 0.1 µg/disc,bacteria; 0.1 μg/disk,14 mm
same,zone of inhibition at 0.2 µg/disc,bacteria; 0.2 μg/disk,17 mm
same,IC90,[1],0.0017 µg/mL
same,IC50,[1],0.0005 µg/mL
same,T/C (%),P388 leukemia; 0.015 mg/kg,167%
same,T/C,P388 leukemia; 0.031 mg/kg,161
same,T/C,P388 leukemia; 0.063 mg/kg,toxic
same,zone of inhibition at 0.05 µg/disc,"M. luteus; Micrococcus luteus, 50 ng/6.35-mm disk",9 mm
same,zone of inhibition at 0.1 µg/disc,M. luteus; Micrococcus luteus,12 mm
same,zone of inhibition at 0.2 µg/disc,M. luteus; Micrococcus luteus,13 mm
same,zone of inhibition at 0.4 µg/disc,M. luteus; [2],14 mm
same,zone of inhibition at 0.8 µg/disc,M. luteus; [3],20 mm
same,zone of inhibition at 1.6 µg/disc,M. luteus; [4],23 mm
same,antimicrobial activity (in words),M. luteus,approximately equivalent and represent the most potent compounds in the series
same,zone of inhibition at 0.05 µg/disc,CV-1 cells; 50 ng/6.35-mm disk,14 mm
same,zone of inhibition at 0.1 µg/disc,CV-1 cells; 100 ng/6.35-mm disk,16 mm
same,zone of inhibition at 0.2 µg/disc,CV-1 cells; 200 ng/6.35-mm disk,20 mm
same,zone of inhibition at 0.4 µg/disc,CV-1 cells; 400 ng/6.35-mm disk,23 mm
same,zone of inhibition at 0.8 µg/disc,CV-1 cells; 800 ng/6.35-mm disk,23 mm
same,zone of inhibition at 1.6 µg/disc,CV-1 cells; 1600 ng/6.35-mm disk,28 mm
same,result in biomedical induction assay (BIA),DNA,negative
same,zone of inhibition at 10 µg/disc,Bacillus subtilis; 10 μg/disk,25 mm
same,zone of inhibition at 10 µg/disc,Bacillus subtilis syn; 10 μg/disk,26 mm
same,zone of inhibition at 10 µg/disc,Klebsiella pneumoniae; 10 μg/disk,20 mm
same,zone of inhibition at 10 µg/disc,Sarcina lutea,27 mm
same,zone of inhibition at 10 µg/disc,Sarcina lutea sens.; 10 μg/disk,35 mm
same,zone of inhibition at 10 µg/disc,Escherichia coli; 10 μg/disk,11 mm
same,zone of inhibition at 10 µg/disc,Pseudomonas aeruginosa; 10 μg/disk,0 mm
same,zone of inhibition at 10 µg/disc,Staphylococcus aureus; 10 μg/disk,19 mm
same,zone of inhibition at 10 µg/disc,Mycobacterium avium; 10 μg/disk,17 mm
same,zone of inhibition at 10 µg/disc,Saccharomyces cerevisiae; 10 μg/disk,0 mm
same,zone of inhibition at 10 µg/disc,Penicillium oxalicum; 10 μg/disk,10 mm
COc1cc2c(cc1O)CCN[C@]21CS[C@@H]2c3c(OC(C)=O)c(C)c4c(c3[C@H](COC1=O)N1C[C@@H]3Cc5cc(C)c(OC)c(O)c5[C@H]([C@H]21)N3C)OCO4 [Ecteinascidin 745],Zone of inhibition,bacteria; 20 μg/disk,trace
same,zone of inhibition at 40 µg/disc,bacteria; 40 μg/disk,7 mm
same,IC90,[1],0.19 µg/mL
same,IC50,[1],0.088 µg/mL
same,T/C,P388 leukemia; 0.25 mg/kg,ca. 100
same,T/C (%),P388 leukemia; 0.25 mg/kg,111%
same,antitumor activity (in words),"P388 leukemia; mouse, in vivo",greatly reduced activity
same,antimicrobial activity (in words),M. luteus,greatly reduced activity
same,times less potent than ecteinascidins 729 and 743,M. luteus,~32 times
same,cytotoxic activity (in words),CV-1 cells,greatly reduced activity
same,zone of inhibition at 0.8 µg/disc,CV-1 cells; 800 ng/6.35-mm disk,9 mm
same,zone of inhibition at 1.6 µg/disc,CV-1 cells; 1600 ng/6.35-mm disk,14 mm
same,zone of inhibition at 5 µg/disc,Bacillus subtilis; 5 μg/disk,0 mm
same,zone of inhibition at 5 µg/disc,Bacillus subtilis syn; 5 μg/disk,0 mm
same,zone of inhibition at 5 µg/disc,Klebsiella pneumoniae; 5 μg/disk,0 mm
same,zone of inhibition at 5 µg/disc,Sarcina lutea sens.; 5 μg/disk,18 mm
same,zone of inhibition at 5 µg/disc,Escherichia coli; 5 μg/disk,0 mm
same,zone of inhibition at 5 µg/disc,Pseudomonas aeruginosa; 5 μg/disk,0 mm
same,zone of inhibition at 5 µg/disc,Staphylococcus aureus; 5 μg/disk,0 mm
same,zone of inhibition at 5 µg/disc,Mycobacterium avium; 5 μg/disk,0 mm
same,zone of inhibition at 5 µg/disc,Saccharomyces cerevisiae; 5 μg/disk,0 mm
same,zone of inhibition at 5 µg/disc,Penicillium oxalicum; 5 μg/disk,0 mm
COc1cc2c(cc1O)CCN[C@]21C[S+]([O-])[C@@H]2c3c(OC(C)=O)c(C)c4c(c3[C@H](COC1=O)N1[C@H]2[C@H]2c3c(cc(C)c(OC)c3O)C[C@@H]([C@H]1O)N2C)OCO4 (stereo partly shown) [Ecteinascidin 759B],Zone of inhibition,bacteria; 0.1 μg/disk,9 mm
same,Zone of inhibition,bacteria; 1 μg/disk,15 mm
same,Zones of Inhibition,M. luteus; 400 ng/6.35-mm disk,10 mm
same,Zones of Inhibition,M. luteus; 800 ng/6.35-mm disk,13 mm
same,Zones of Inhibition,M. luteus; 1600 ng/6.35-mm disk,15 mm
same,times less potent than ecteinascidins 729 and 743,M. luteus,four to eight times less potent
same,Zones of Inhibition,CV-1 cells; 100 ng/6.35-mm disk,11 mm
same,Zones of Inhibition,CV-1 cells; 200 ng/6.35-mm disk,13 mm
same,Zones of Inhibition,CV-1 cells; 400 ng/6.35-mm disk,15 mm
same,Zones of Inhibition,CV-1 cells; 800 ng/6.35-mm disk,22 mm
same,Zones of Inhibition,CV-1 cells; 1600 ng/6.35-mm disk,22 mm
